Reference: US6924278B2, “Aroyl-piperazine derivatives, their preparation and their use as tachykinin antagonists” (Fujisawa Pharmaceutical Co., Ltd., priority 1997, dated 2005)
Structures can show the parent of a compound that is named as a salt.

melting point | SMILES
73 to 75 °C | Cc1ccc(C[C@@H]2CN(CCCn3cccn3)CCN2C(=O)c2cc(C(F)(F)F)cc(C(F)(F)F)c2)cc1C.Cl
160 to 170 °C | COc1ccc(C#CCN2CCN(C(=O)c3cc(C(F)(F)F)cc(C(F)(F)F)c3)[C@H](Cc3ccc(C)c(C)c3)C2)cn1.Cl.Cl
170 to 180 °C | C[C@H]1COC[C@H](C)N1CCN1CCN(C(=O)c2cc(C(F)(F)F)cc(C(F)(F)F)c2)[C@H](Cc2c[nH]c3ccccc23)C1.Cl.Cl
140 to 150 °C | Cl.Cl.O=C(c1cc(C(F)(F)F)cc(C(F)(F)F)c1)N1CCN(CC#Cc2cccnc2)C[C@H]1Cc1ccc2ccccc2c1
165 °C (dec.) | Cl.Cl.O=C(c1cc(Cl)cc(Cl)c1)N1CCN(CC#CCN2CCOCC2)C[C@H]1Cc1c[nH]c2ccccc12
130 to 150 °C | COC[C@@H]1COCCN1CCN1CCN(C(=O)c2cc(C(F)(F)F)cc(C(F)(F)F)c2)[C@H](Cc2c[nH]c3ccccc23)C1.Cl.Cl
155 to 160 °C | CCOC[C@H]1COCCN1CC#CCN1CCN(C(=O)c2cc(C(F)(F)F)cc(C(F)(F)F)c2)[C@H](Cc2ccc(C)c(C)c2)C1.Cl.Cl
183 to 189 °C | COc1ccc(C#CCN2CCN(C(=O)c3cc(C(F)(F)F)cc(C(F)(F)F)c3)[C@H](Cc3c[nH]c4ccccc34)C2)cn1.Cl.Cl
223 to 230 °C | Cc1ccc(C[C@@H]2CN(Cc3cnn(CC(=O)O)c3)CCN2C(=O)c2cc(C(F)(F)F)cc(C(F)(F)F)c2)cc1C [Example 47, (2R)-1-[3,5-bis(trifluoromethyl)benzoyl]-4-[[1-(carboxymethyl)-1H-pyrazol-4-yl]methyl]-2-(3,4-dimethylbenzyl)piperazine]
172 °C (dec.) | Cl.Cl.O=C(c1cc(Cl)cc(Cl)c1)N1CCN(CC#CCN2CCSCC2)C[C@H]1Cc1ccc(C(F)(F)F)cc1
120 to 130 °C | Cc1ccc(C[C@@H]2CN(CCCc3ccccn3)CCN2C(=O)c2cc(C(F)(F)F)cc(C(F)(F)F)c2)cc1C.Cl.Cl
176 to 180 °C | CC[C@@H]1COCCN1CC#CCN1CCN(C(=O)c2cc(C(F)(F)F)cc(C(F)(F)F)c2)[C@H](Cc2c[nH]c3ccccc23)C1.Cl.Cl
175 to 185 °C | Cl.Cl.O=C(c1cc(C(F)(F)F)cc(C(F)(F)F)c1)N1CCN(CCC#Cc2cccnc2)C[C@H]1Cc1c[nH]c2ccccc12
159 to 168 °C | COc1ccncc1CCCN1CCN(C(=O)c2cc(C(F)(F)F)cc(C(F)(F)F)c2)[C@H](Cc2ccc(C)c(C)c2)C1.Cl.Cl
171 °C (dec.) | Cl.Cl.O=C(c1cc(Cl)cc(Cl)c1)N1CCN(CC#CCN2CCOCC2)C[C@H]1Cc1ccc2ccccc2c1
175 to 185 °C | COC[C@H]1COCCN1CCN1CCN(C(=O)c2cc(C(F)(F)F)cc(C(F)(F)F)c2)[C@H](Cc2c[nH]c3ccccc23)C1.Cl.Cl
175 °C (dec.) | Cl.Cl.O=C(c1cc(Cl)cc(Cl)c1)N1CCN(CC#CCN2CCSCC2)C[C@H]1Cc1c[nH]c2ccccc12
192 to 195 °C | CNc1cccc(CC2CN(CC#CCN3CCOCC3(C)C)CCN2C(=O)c2cc(C(F)(F)F)cc(C(F)(F)F)c2)c1 (stereo not shown) (as salt: hydrochloride) [Example 93, 1-[3,5-Bis(trifluoromethyl)benzoyl]-4-[4-(3,3-dimethylmorpholino)-2-butynyl]-2-[3-(N-methylamino)benzyl]piperazine]
150 to 153 °C | COc1ccncc1C#CCN1CCN(C(=O)c2cc(C(F)(F)F)cc(C(F)(F)F)c2)[C@H](Cc2ccc(C)c(C)c2)C1.Cl.Cl
183 to 189 °C | Cc1ccc(C[C@@H]2CN(CC#Cc3ccc(N)nc3)CCN2C(=O)c2cc(C(F)(F)F)cc(C(F)(F)F)c2)cc1C.Cl.Cl
150 to 154 °C | COCC1CN(CCN2CCN(C(=O)c3cc(C(F)(F)F)cc(C(F)(F)F)c3)[C@H](Cc3ccc(C)c(C)c3)C2)CCO1.Cl.Cl (stereo partly shown)
162 to 167 °C | COc1ccncc1C#CCN1CCN(C(=O)c2cc(C(F)(F)F)cc(C(F)(F)F)c2)[C@H](Cc2c[nH]c3ccccc23)C1.Cl.Cl
